The values that follow come from US8722849B2, “Polypeptides” (Novo Nordisk A/S, priority 2011, dated 2014).

pEC50: −log10 of the molar value. Values after ≈ are worked out from the molar mass of the structure shown. Read-outs that look alike come from different tables or passages of the source. Starred links: 1 amine or outer side, 2 acyl side, 3 side chain; linkers in the order of their positions; H or OH if unused. Positions of bridges follow the written chain, without caps; N, C: chain ends. Residues, ends and D or L forms follow the SMILES beside them. Groups on a side chain read outwards from the residue. *: point of attachment. C20 diacid = O=C(O)CCCCCCCCCCCCCCCCCCC(=O)*; C18 diacid = O=C(O)CCCCCCCCCCCCCCCCC(=O)*; γGlu = O=C(O)[C@H](CCC(=O)[*:2])N[*:1]; AEEA = NCCOCCOCC(=O)O Bounds are passed on as bounds.

Data set [1] is described as follows: Assay (III) ThT fibrillation assay for physical stability. The conditions noted are these: ThT fibrillation assay. It counts as physicochemical. An outline of the steps: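 Freshly prepared formulations, pH-adjusted, with 1 μM ThT; four or eight replicates incubated at 37 °C under 960 rpm orbital shaking. Fluorescence (ex 444/em 485 nm) read every 20 min; […]. Peptide concentration measured by RP-HPLC before and after the run.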

For data set [2], the system named is food intake. Description: Assay (I) efficacy testing on appetite (food intake), ad libitum fed rat model. It counts as in vivo, Sprague Dawley (SD) rats. The conditions noted are these: 30 nmol/kg. An excerpt:
In the following examples reference is made to the following Assays: • Assay (I)— Experimental protocol for efficacy testing on appetite using an ad libitum fed rat model • ASSAY (II)a—Functional assay—Human calcitonin and amylin receptor assay • ASSAY (II)b—Functional assay—Rat calcitonin and rat amylin receptor assays • ASSAY (III)—ThT fibrillation assays for the assessment of physical stability of protein formulations • ASSAY (IV)—Determination of solubility • ASSAY (V)—Determination of binding to the human amylin receptor • ASSAY (VI)—Determination of the binding to the rat amylin receptor • ASSAY (VII)—Determination of binding to the human calcitonin receptor • ASSAY (VIII)—Determination of binding to the rat calcitonin receptor • ASSAY (IX)—pK—Determination of T % in mini-pig • ASSAY (X)—pK—Determination of T % in rat ASSAY (I)—Experimental Protocol for Efficacy Testing on Appetite Using an Ad Libitum Fed Rat Model
Sprague Dawley (SD) rats from Taconic Europe, Denmark are used for the experiments. The rats have a body weight 200-250 g at the start of experiment. The rats arrive at least 10-14 days before start of experiment to allow acclimatization to experimental settings. During this period the animals are handled at least 2 times. After arrival rats are housed individually for one week in a reversed light/dark phase (meaning that lights are off during daytime and on during nighttime) […]. Since rats are normally active and eat their major part of their daily food intake during the dark period, rats are dosed in the morning right before lights are turned off. This set-up results in the lowest data variation and highest test sensitivity. The experiment is conducted in the rats' home cages and rats have free access to food and water throughout the acclimatization period and the experiment period. Each dose of derivative is tested in a group of 5-8 rats. A vehicle group of 6-8 rats is included in each set of testing. Rats are dosed once according to body weight with a 0.01-3 mg/kg solution administered intraperitoneally (ip), orally (po) or subcutaneously (sc). The time of dosing is recorded for each group. After dosing, the rats are returned to their home cages, where they then have access to food and water. The food consumption is recorded individually continuously by on-line registration or manually every hour for 7 hours, and then after 24 h and sometimes 48 h. At the end of the experimental session, the animals are euthanised.
The individual data are recorded in Microsoft excel sheets. Outliers are excluded after applying the Grubbs statistical evaluation test for outliers, and the result is presented graphically using the GraphPad Prism program.

The target in data set [3] is T1, human amylin receptor (amylin 3(a) receptor: human calcitonin receptor + RAMP-3) (Homo sapiens, UniProt O60896+P30988).
T1 construct: expressed in transfected cells; host or cells: BHK570
T1 sequence (P30988 25-474): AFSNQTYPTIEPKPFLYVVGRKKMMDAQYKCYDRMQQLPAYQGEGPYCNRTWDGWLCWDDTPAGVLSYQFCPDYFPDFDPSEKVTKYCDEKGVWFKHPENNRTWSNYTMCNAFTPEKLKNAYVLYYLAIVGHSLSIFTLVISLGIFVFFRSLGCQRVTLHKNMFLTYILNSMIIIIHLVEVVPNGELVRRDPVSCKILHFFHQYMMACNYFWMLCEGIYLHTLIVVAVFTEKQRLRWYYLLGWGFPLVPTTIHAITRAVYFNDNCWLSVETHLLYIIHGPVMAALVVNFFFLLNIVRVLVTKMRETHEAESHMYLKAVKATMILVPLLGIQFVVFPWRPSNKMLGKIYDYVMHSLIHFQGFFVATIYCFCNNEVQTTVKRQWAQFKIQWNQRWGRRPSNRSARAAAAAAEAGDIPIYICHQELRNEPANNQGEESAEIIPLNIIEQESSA
T1 sequence (O60896 24-148 partner): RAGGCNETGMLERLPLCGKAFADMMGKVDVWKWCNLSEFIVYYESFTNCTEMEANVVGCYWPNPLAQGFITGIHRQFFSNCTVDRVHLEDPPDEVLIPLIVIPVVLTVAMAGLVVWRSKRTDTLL
Description: Assay (II)a functional CRE-luciferase assay, human amylin receptor. It is filed as cell-based. As to conditions: Table 2; BHK amylin 3(a)-receptor/CRE-luc cells.

Data set [4] deals with T2, human calcitonin receptor (Homo sapiens, UniProt P30988).
T2 construct: expressed in transfected cells; host or cells: BHK570
T2 sequence (P30988 25-474): T1 sequence (P30988 25-474)
Description: Assay (II)a functional CRE-luciferase assay, human calcitonin receptor. It is filed as cell-based.

Data set [5] can be described thus: Assay (IV) determination of solubility. It is filed as physicochemical. An outline of the steps: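 Solubility was profiled across pH 3.0–8.0 after 18 hours at room temperature: a ~500 nmol/ml aqueous polypeptide solution was diluted 1:1 into 100 mM glycylglycine or bistrispropane buffers. After centrifugation, HPLC gave the dissolved concentration.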
[6] abbreviates: bistrispropane buffer, pH 6, pH 6.0, read-out: Solubility pH 6.0.
The mark [7] stands for this setting: bistrispropane buffer, pH 6.5, pH 6.5, read-out: Solubility pH 6.5.
Setting [8] is: bistrispropane buffer, pH 7, pH 7.0, read-out: Solubility pH 7.0.
Setting [9] is: bistrispropane buffer, pH 7.5, pH 7.5, read-out: Solubility pH 7.5.
[10] abbreviates: bistrispropane buffer, pH 8, pH 8.0, read-out: Solubility pH 8.0.
The mark [11] stands for this setting: glycylglycine buffer, pH 3, pH 3.0, read-out: Solubility pH 3.0.
Setting [12] is: glycylglycine buffer, pH 4, pH 4.0, 18 hours at room temperature, Table 2, read-out: Solubility pH 4.0.
[13] abbreviates: glycylglycine buffer, pH 4, pH 4.0, read-out: Solubility pH 4.0.
Setting [14] is: glycylglycine buffer, pH 5, pH 5.0, read-out: Solubility pH 5.0.

Consider `CC[C@H](C)[C@H](NC(=O)[C@@H]1CCCN1C(=O)CNC(=O)[C@H](Cc1ccccc1)NC(=O)[C@H](CC(N)=O)NC(=O)[C@H](CC(N)=O)NC(=O)[C@H](CO)NC(=O)[C@H](CO)NC(=O)[C@H](Cc1c[nH]cn1)NC(=O)[C@H](Cc1c[nH]cn1)NC(=O)[C@H](CC(C)C)NC(=O)[C@H](Cc1ccccc1)NC(=O)[C@H](CCC(=O)O)NC(=O)[C@H](C)NC(=O)[C@H](CC(C)C)NC(=O)[C@H](CCCNC(=N)N)NC(=O)[C@H](CCC(N)=O)NC(=O)[C@@H](NC(=O)[C@H](C)NC(=O)[C@@H]1CSSC[C@H](NC(=O)[C@H](Cc2c[nH]cn2)NC(=O)[C@H](Cc2c[nH]cn2)NC(=O)[C@H](Cc2c[nH]cn2)NC(=O)CC[C@H](NC(=O)CCCCCCCCCCCCCCCCCCC(=O)O)C(=O)O)C(=O)N[C@@H](CC(N)=O)C(=O)N[C@@H]([C@@H](C)O)C(=O)N[C@@H](C)C(=O)N[C@@H]([C@@H](C)O)C(=O)N1)[C@@H](C)O)C(=O)N[C@@H](CC(C)C)C(=O)N1CCC[C@H]1C(=O)N1CCC[C@H]1C(=O)N[C@H](C(=O)N[C@@H](CC(N)=O)C(=O)N[C@H](C(=O)NCC(=O)N[C@@H](CO)C(=O)N[C@@H](CC(N)=O)C(=O)N[C@H](C(=O)N[C@@H](Cc1ccc(O)cc1)C(N)=O)[C@@H](C)O)C(C)C)[C@@H](C)O` [Example 11, N-alpha-[(S)-4-Carboxy-4-(19-carboxynonadecanoylamino)butyryl]-His-His-[His1,Glu14,His17]-pramlintide] ({C20 diacid-γGlu}-HHHCNTATCATQRLAEFLHHSSNNFGPILPPTNVGSNTY-NH2; disulfide 4-9 (inferred)), for which the “ThT pH 4.0 lag time (h)” value in data set [1] amounted to 7.4 h. In data set [2] (0-24 h), the “Food intake reduction 0-24 h 30 nmol/kg (%)” value is listed as 87%. In data set [2] (24-48 h), the “Food intake reduction 24-48 h 30 nmol/kg (%)” value was 92%.
In general, pEC50 refers to the negative decadic logarithm of the EC50, by convention in mol/L. What is called solubility is the concentration that dissolves in the medium under given conditions. With `CC[C@H](C)[C@H](NC(=O)[C@@H]1CCCN1C(=O)CNC(=O)[C@H](Cc1ccccc1)NC(=O)[C@H](CC(N)=O)NC(=O)[C@H](CC(N)=O)NC(=O)[C@H](CO)NC(=O)[C@H](CO)NC(=O)[C@H](Cc1c[nH]cn1)NC(=O)[C@H](Cc1c[nH]cn1)NC(=O)[C@H](CC(C)C)NC(=O)[C@H](Cc1ccccc1)NC(=O)[C@H](CCC(=O)O)NC(=O)[C@H](C)NC(=O)[C@H](CC(C)C)NC(=O)[C@H](CCCNC(=N)N)NC(=O)[C@H](CCC(N)=O)NC(=O)[C@@H](NC(=O)[C@H](C)NC(=O)[C@@H]1CSSC[C@H](NC(=O)[C@H](CCCCN)NC(=O)CC[C@H](NC(=O)CCCCCCCCCCCCCCCCCCC(=O)O)C(=O)O)C(=O)N[C@@H](CC(N)=O)C(=O)N[C@@H]([C@@H](C)O)C(=O)N[C@@H](C)C(=O)N[C@@H]([C@@H](C)O)C(=O)N1)[C@@H](C)O)C(=O)N[C@@H](CC(C)C)C(=O)N1CCC[C@H]1C(=O)N1CCC[C@H]1C(=O)N[C@H](C(=O)N[C@@H](CC(N)=O)C(=O)N[C@H](C(=O)NCC(=O)N[C@@H](CO)C(=O)N[C@@H](CCCNC(=N)N)C(=O)N[C@H](C(=O)N[C@@H](Cc1ccc(O)cc1)C(N)=O)[C@@H](C)O)C(C)C)[C@@H](C)O` [Example 112, N-alpha-[(S)-4-Carboxy-4-(19-carboxynonadecanoylamino)butyryl]-[Glu14,His17,Arg35]-pramlintide] ({C20 diacid-γGlu}-KCNTATCATQRLAEFLHHSSNNFGPILPPTNVGSRTY-NH2; disulfide 2-7 (inferred); C-terminus assumed), in data set [1], the “ThT pH 4.0 lag time” value is recorded as over 45 h. The “ThT pH 4.0 lag time (h)” value in data set [1] is given as over 45 h. Also, the pEC50 in data set [3] is 10.01; in data set [4] (Table 7, human calcitonin (CTa) receptor) it was 9.98. Also, the solubility at 18 h in data set [5] (setting [6]) is over 200 µM; in data set [5] (setting [7]), 161 µM (≈ 724 µg/mL); in data set [5] (setting [8]), 23 µM (≈ 103 µg/mL); in data set [5] (setting [9]), 4 µM (≈ 18 µg/mL); in data set [5] (setting [10]), 2 µM (≈ 9 µg/mL); in data set [5] (setting [11]), over 200 µM. The solubility at 18 h in data set [5] (setting [12]), in data set [5] (setting [13]) and in data set [5] (setting [14]) was over 200 µM in each case.
For the compound `CC[C@H](C)[C@H](NC(=O)[C@@H]1CCCN1C(=O)CNC(=O)[C@H](Cc1ccccc1)NC(=O)[C@H](CC(N)=O)NC(=O)[C@H](CC(N)=O)NC(=O)[C@H](CO)NC(=O)[C@H](CO)NC(=O)[C@H](Cc1c[nH]cn1)NC(=O)[C@H](CCCCNC(=O)COCCOCCNC(=O)COCCOCCNC(=O)CC[C@H](NC(=O)CCCCCCCCCCCCCCCCC(=O)O)C(=O)O)NC(=O)[C@H](CC(C)C)NC(=O)[C@H](Cc1ccccc1)NC(=O)[C@H](CCC(=O)O)NC(=O)[C@H](C)NC(=O)[C@H](CC(C)C)NC(=O)[C@H](CCCNC(=N)N)NC(=O)[C@H](CCC(N)=O)NC(=O)[C@@H](NC(=O)[C@H](C)NC(=O)[C@@H]1CSSC[C@H](NC(=O)[C@@H](N)CCCCN)C(=O)N[C@@H](CC(N)=O)C(=O)N[C@@H]([C@@H](C)O)C(=O)N[C@@H](C)C(=O)N[C@@H]([C@@H](C)O)C(=O)N1)[C@@H](C)O)C(=O)N[C@@H](CC(C)C)C(=O)N1CCC[C@H]1C(=O)N1CCC[C@H]1C(=O)N[C@H](C(=O)N[C@@H](CC(N)=O)C(=O)N[C@H](C(=O)NCC(=O)N[C@@H](CO)C(=O)N[C@@H](CC(N)=O)C(=O)N[C@H](C(=O)N[C@@H](Cc1ccc(O)cc1)C(N)=O)[C@@H](C)O)C(C)C)[C@@H](C)O` [Example 80, N-epsilon17-[2-(2-{2-[2-(2-{2-[(S)-4-Carboxy-4-(17-carboxyheptadecanoylamino)butyrylamino]ethoxy}ethoxy)acetylamino]ethoxy}ethoxy)acetyl]-[Glu14,Lys17]-pramlintide] (H-KCNTATCATQRLAEFLK([AEEA-AEEA-γGlu-C18 diacid])HSSNNFGPILPPTNVGSNTY-NH2; disulfide 2-7), the “ThT pH 4.0 lag time (h)” value in data set [1] was 3 h. The pEC50 in data set [3] is 9.34; in data set [4] (Table 11, read-out: CTa receptor human EC50) it was 8.37. For the same compound, the solubility at 18 h is over 200 µM in data set [5] (setting [6]); over 200 µM in data set [5] (setting [7]); over 200 µM in data set [5] (bistrispropane buffer, pH 7, pH 7.0, 18 hours at room temperature, Table 3, read-out: Solubility pH 7.0); over 200 µM in data set [5] (setting [8]); over 200 µM in data set [5] (setting [9]); over 200 µM in data set [5] (setting [10]). Besides, the solubility at 18 h in data set [5] (setting [11]), in data set [5] (setting [12]), in data set [5] (setting [13]) and in data set [5] (setting [14]) was over 200 µM each time.
